Patent publication US20190134005A1 (BioMarin Pharmaceutical Inc., priority 2016, published 2019)

target: T1, human CGT (Homo sapiens, UniProt Q16880); assay: CGT Enzyme Assay (Biological Example 2, RapidFire/MS/MS method with 0.01% Tween 80 added); type: biochemical; conditions: enzymatic assay, CHO/CGT lysate
T1 sequence (Q16880 21-541): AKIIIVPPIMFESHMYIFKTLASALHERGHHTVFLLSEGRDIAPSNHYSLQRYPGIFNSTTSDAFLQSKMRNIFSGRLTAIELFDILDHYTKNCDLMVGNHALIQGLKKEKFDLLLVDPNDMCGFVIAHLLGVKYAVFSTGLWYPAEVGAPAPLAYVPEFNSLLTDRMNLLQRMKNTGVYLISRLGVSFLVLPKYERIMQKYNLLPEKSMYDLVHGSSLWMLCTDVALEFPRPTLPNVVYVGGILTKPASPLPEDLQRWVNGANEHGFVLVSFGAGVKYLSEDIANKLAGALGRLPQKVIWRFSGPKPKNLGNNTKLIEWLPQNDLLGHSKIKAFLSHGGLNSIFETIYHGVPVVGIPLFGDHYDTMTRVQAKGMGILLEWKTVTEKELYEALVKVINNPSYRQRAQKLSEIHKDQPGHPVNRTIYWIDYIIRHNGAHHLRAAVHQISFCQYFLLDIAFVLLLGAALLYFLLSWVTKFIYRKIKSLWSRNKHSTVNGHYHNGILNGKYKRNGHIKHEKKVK
Method in brief: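 Lysate of CHO cells transfected with full-length human CGT, 0.5% DMSO final, 0.01% Tween 80 added; reactions stopped with methanol:acetonitrile holding internal standard. C6-NBD-dihydro-galactosylceramide and C6-NBD-dihydro-ceramide measured by RapidFire/MS/MS (ESI negative), product peak area normalized to internal standard.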

Compound	IC50 [µM]
Cc1ccc(N2C(=O)N(c3ccc(C#N)cc3)C3(COC3)[C@H]2c2cccc(C#N)c2)cc1 [Example 57-1, (R)-3-(5-(4-cyanophenyl)-6-oxo-7-(p-tolyl)-2-oxa-5,7-diazaspiro[3.4]octan-8-yl)benzonitrile]	10 to 30
O=C1N(c2ccc(Cl)cc2)C2CCOC[C@]2(c2cccc(OC(F)(F)F)c2)N1c1ccc(Cl)cc1 (stereo partly drawn) [Example 31-1, (3aR)-1,3-bis(4-chlorophenyl)-3a-(3-(trifluoromethoxy)phenyl)hexahydropyrano[3,4-d]imidazol-2(3H)-one]	10 to 30
CCC1(CC)[C@@H](c2cccc(OC(F)(F)F)c2)N(c2ccc(Cl)cc2)C(=O)N1c1ccc(Cl)cc1 [Example 17-1, (R)-1,3-bis(4-chlorophenyl)-4,4-diethyl-5-(3-(trifluoromethoxy)phenyl)imidazolidin-2-one]	< 1
CC[C@]1(C)[C@@H](c2cccc(OC(F)(F)F)c2)N(c2ccc(C#N)cc2)C(=O)N1c1ccc(C#N)cc1 [Example 51-3, 4,4′-((4R,5R)-4-ethyl-4-methyl-2-oxo-5-(3-(trifluoromethoxy)phenyl)imidazolidine-1,3-diyl)dibenzonitrile]	1 to 10
